Data from patent US11583545B2, “Parasiticidal compositions comprising eprinomectin and praziquantel, methods and uses thereof” (BOEHRINGER INGELHEIM ANIMAL HEALTH USA INC., priority 2018, dated 2023).

Tests used:
[1] = Stability study of topical solution in the market container (HPLC, 30° C./65% RH); format: physicochemical; details: in formulation of Example 1, two runs
[2] = Pharmacokinetic assessment in cats after administration of the formulation of Example 1; details: blood of cats; after administration of formulation of Example 1
[3] = in vivo; details: cat
[4] = in vivo

| half-life [3] | time at which Cmax is reached [4] | Molecule | average % label claim ([1]; time point 0 month) | average % label claim ([1]; time point 3 months) | average % label claim ([1]; time point 6 months) | average % label claim ([1]; time point 9 months) | average % label claim ([1]; time point 12 months) | average % label claim ([1]; time point 18 months) | terminal half-life [2] |
| --- | --- | --- | --- | --- | --- | --- | --- | --- | --- |
|  |  | Eprinomectin | 99.33 % LC | 97.92 % LC | 97.61 % LC | 98.40 % LC | 98.50 % LC | 96.48 % LC | 114 h |
| 73.9 h | 6 h | O=C(C1CCCCC1)N1CC(=O)N2CCc3ccccc3C2C1 (stereo not drawn) [Praziquantel, praziquantel] | 99.52 % LC | 97.38 % LC | 97.74 % LC | 98.44 % LC | 98.36 % LC | 97.04 % LC |  |
